Read-outs that look alike come from different tables or passages of the source. Blank lines part the entries; values can stand above or below the molecule they belong to.
Tests used:
[1] = Binding of factor VIIa inhibitor to plasma proteins (shift in IC50, buffer vs plasma); type: in vitro ADME; settings: pH 7.5, probe D-Ile-Pro-Arg-AFC (fluorogenic factor VIIa substrate); factor X deficient human plasma; 1-IC50 in buffer/IC50 in plasma; read-out: Protein binding (converted)
Source text: Some embodiments of the present invention provide methods for determining the plasma protein binding affinity of a factor VIIa inhibitor for other plasma proteins. Factor VIIa inhibitors having low plasma protein binding affinity for plasma proteins other than factor VIIa are preferred because more unbound factor VIIa inhibitor is available to bind and inhibit factor VIIa. The term “low protein binding factor VIIa inhibitor” as used herein means, a factor VIIa inhibitor that decreases the activity of factor VIIa in the presence or absence of other plasma proteins. […] The fraction of inhibitor bound to plasma protein is calculated by 1-IC50 in buffer/IC50 in plasma.
Protein binding of the inhibitor 2-(1-aminoisoquinolin-6-ylamino)-2-(3-ethoxy-4-isopropoxyphenyl)-N-(4-hydroxyphenylsulfonyl)acetamide was determined by measuring factor VIIa inhibition by the test inhibitor in buffer and then in factor X deficient human plasma. […] The assay was carried out in a fluorescence plate reader at room temperature at an excitation wavelength of 400 nm and an emission wavelength of 535 nm. The fraction of the inhibitor bound to plasma protein was calculated according to the following formula: 1-IC50 in buffer/IC50 in plasma. […] Protein binding of 2-(1-aminoisoquinolin-6-ylamino)-2-(3-ethoxy-4-isopropoxyphenyl)-N-(4-hydroxyphenylsulfonyl)acetamide was determined to be 99.2%.

factor VIIa [2] = target: T1, factor VIIa (Homo sapiens, UniProt P08709); experiment: Factor VIIa inhibition in buffer and in factor X deficient human plasma; type: biochemical; settings: 2.5 nM factor VIIa, FIG. 5
T1 construct: proteolytic cleavage of factor X to factor Xa, factor IX to factor IXa and additional factor VII to factor VIIa
T1 sequence (P08709 61-212 limits assumed): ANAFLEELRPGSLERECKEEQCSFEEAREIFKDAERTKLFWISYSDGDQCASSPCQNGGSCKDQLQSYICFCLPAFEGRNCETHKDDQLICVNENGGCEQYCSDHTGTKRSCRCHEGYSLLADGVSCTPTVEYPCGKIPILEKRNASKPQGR
T1 sequence (P08709 213-466 limits assumed): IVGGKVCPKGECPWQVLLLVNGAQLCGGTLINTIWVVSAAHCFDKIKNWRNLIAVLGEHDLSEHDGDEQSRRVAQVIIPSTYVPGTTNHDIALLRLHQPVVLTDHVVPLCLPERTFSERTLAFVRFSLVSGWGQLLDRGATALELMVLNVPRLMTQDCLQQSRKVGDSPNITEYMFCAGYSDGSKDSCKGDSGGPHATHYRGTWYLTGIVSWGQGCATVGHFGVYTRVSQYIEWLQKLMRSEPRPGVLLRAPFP
T1 sequence (P13726 with tags, fused parts or gaps partner limits assumed): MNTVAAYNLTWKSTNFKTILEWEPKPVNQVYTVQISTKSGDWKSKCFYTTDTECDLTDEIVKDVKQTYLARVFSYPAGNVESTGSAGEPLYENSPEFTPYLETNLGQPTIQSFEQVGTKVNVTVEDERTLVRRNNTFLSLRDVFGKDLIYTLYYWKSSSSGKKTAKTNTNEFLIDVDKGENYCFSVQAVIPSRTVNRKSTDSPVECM
Method: Protein binding of the inhibitor 2-(1-aminoisoquinolin-6-ylamino)-2-(3-ethoxy-4-isopropoxyphenyl)-N-(4-hydroxyphenylsulfonyl)acetamide was determined by measuring factor VIIa inhibition by the test inhibitor in buffer and then in factor X deficient human plasma. […] In FIG. 5, one set of samples contained 2.5 nM factor VIIa, 28 nM soluble tissue factor, 10 mM CaCl2 100 nM D-Ile-Pro-Arg-AFC and varying concentrations of factor VIIa inhibitor 2-(1-aminoisoquinolin-6-ylamino)-2-(3-ethoxy-4-isopropoxyphenyl)-N-(4-hydroxyphenylsulfonyl)acetamide (Compound B). The second sample set was identical to the first set with the addition of 90% factor X deficient plasma. All samples were diluted in 50 mM HEPES pH 7.5, 150 mM NaCl, 0.1% polyethyleneglycol 8000 and 0.1% bovine serum albumin. The assay was carried out in a fluorescence plate reader at room temperature at an excitation wavelength of 400 nm and an emission wavelength of 535 nm. The fraction of the inhibitor bound to plasma protein was calculated according to the following formula: 1-IC50 in buffer/IC50 in plasma. […] Protein binding of 2-(1-aminoisoquinolin-6-ylamino)-2-(3-ethoxy-4-isopropoxyphenyl)-N-(4-hydroxyphenylsulfonyl)acetamide was determined to be 99.2%.

factor VIIa [3] = target: T1, factor VIIa; experiment: Factor VIIa substrate hydrolysis (amidolytic activity) in factor X deficient plasma; type: biochemical; settings: 1 μM inhibitor, 85% factor X deficient plasma, 0.5 nM factor VIIa, D-Ile-Pro-Arg-AFC, FIG. 2
Method: The assay was carried out in a fluorescence plate reader at room temperature. factor VIIa substrate hydrolysis (amidolytic activity on the substrate) was monitored for 30 minutes at an excitation wavelength of 400 nm and an emission wavelength of 535 nm. […] Such interference is primarily due to hydrolysis of the relatively nonspecific peptide substrate by downstream proteases such as factor Xa and thrombin.

[4] = Factor VIIa inhibitor concentration in plasma samples from dosed rabbits (functional assay); type: in vivo; settings: sample B6, plasma from dosed rabbit; IC50 of standard curve × plasma dilution factor giving 50% inhibition
Method: Plasma was prepared from tested blood samples drawn from rabbits dosed with (R)-N-(5-acetamido-2-(ethylsulfonyl)benzyl)-2-(1-aminoisoquinolin-6-ylamino)-2-(3,4-dimethoxyphenyl)acetamide (Compound C) into buffered citrate. The samples were diluted and combined with tissue factor, factor VIIa, Ca^++, factor Xa inhibitor 2-(3-Aminomethyl-phenyl)-5-trifluoromethyl-2H-pyrazole-3-carboxylic acid (3-fluoro-2′-methanesulfonyl-biphenyl-4-yl)-amide and fluorogenic factor VIIa substrate D-Ile-Pro-Arg-AFC. The inhibitory activity of the tested sample was measured by monitoring the fluorescence of the D-Ile-Pro-Arg-AFC product and comparing the activity to standard curve constructed with plasma from an undosed rabbit spiked with known concentrations of the (R)-N-(5-acetamido-2-(ethylsulfonyl)benzyl)-2-(1-aminoisoquinolin-6-ylamino)-2-(3,4-dimethoxyphenyl)acetamide. […] The assay was carried out in a fluorescent plate reader at room temperature at an excitation wavelength of 400 nm and an emission wavelength of 535 nm. […] IC50 of the standard curve was calculated using floating top and bottom to account for the background signal not originating from factor VIIa activity. […] The concentration of (R)-N-(5-acetamido-2-(ethylsulfonyl)benzyl)-2-(1-aminoisoquinolin-6-ylamino)-2-(3,4-dimethoxyphenyl)acetamide present in sample B6 was calculated to be 338.5 nM. […]

- fraction unbound [1]: 0.008
- IC50 (factor VIIa [2]; 90% factor X deficient plasma, read-out: IC50 in plasma): 3300 nM
- IC50 (factor VIIa [2]; buffer without plasma, read-out: IC50 in buffer): 26 nM
Compound: CCOc1cc(C(Nc2ccc3c(N)nccc3c2)C(=O)NS(=O)(=O)c2ccc(O)cc2)ccc1OC(C)C (centres unmarked) [Compound B, 2-(1-aminoisoquinolin-6-ylamino)-2-(3-ethoxy-4-isopropoxyphenyl)-N-(4-hydroxyphenylsulfonyl)acetamide]

- inhibition of amidolytic activity in factor X deficient plasma (factor VIIa [3]): most of it is inhibited
Compound: COc1cc([C@@H]2Nc3ccc(C(=N)N)cc3[C@H]3c4ccccc4C[C@H]32)c(-c2ccc(C(=O)O)cc2)cc1O [2′-((6R,6aR,11bR)-2-carbamimidoyl-6,6a,7,11b-tetrahydro-5H-indeno[2,1-c]quinolin-6-yl)-5′-hydroxy-4′-methoxybiphenyl-4-carboxylic acid]

- concentration present in plasma sample [4]: 338.5 nM
Compound: CCS(=O)(=O)c1ccc(NC(C)=O)cc1CNC(=O)[C@H](Nc1ccc2c(N)nccc2c1)c1ccc(OC)c(OC)c1 [Compound C, (R)-N-(5-acetamido-2-(ethylsulfonyl)benzyl)-2-(1-aminoisoquinolin-6-ylamino)-2-(3,4-dimethoxyphenyl)acetamide]
